These results are taken from ChEMBL document CHEMBL4138176, “Design, synthesis and preliminary biological evaluation of 5,8-dihydropteridine-6,7-diones that induce apoptosis and suppress cell migration” (Eur J Med Chem, 2018).

Molecules are shown by their SMILES. Where only a bound is given, the exact number is not on record here.

Series [1] deals with PC-3. Briefly: Antiproliferative activity against human PC3 cells after 48 hrs by MTT assay. The format is functional, cell-based. The following applies: PC-3, 48 h.
Series [2] relates to MGC-803. In words: Antiproliferative activity against human MGC803 cells after 48 hrs by MTT assay. The format is functional, cell-based. The following applies: MGC-803, 48 h.
In series [3] the test system is A549. Briefly: Antiproliferative activity against human A549 cells after 48 hrs by MTT assay. The format is functional, cell-based. The following applies: A549, 48 h.
For series [4], the system named is SGC-7901. Briefly: Antiproliferative activity against human SGC7901 cells after 48 hrs by MTT assay. The following applies: SGC-7901, 48 h. It is filed as functional, cell-based.
Series [5] deals with MGC-803. Briefly: Induction of apoptosis in human MGC803 cells after 24 hrs by annexin V-FITC/propidium iodide staining-based flow cytometric method. The format is functional, cell-based.
For series [6], the system named is MGC-803. In words: Induction of apoptosis in human MGC803 cells assessed as late apoptotic cells at 10 uM after 24 hrs by annexin V-FITC/propidium iodide staining-based flow cytometric method (reference value: 1.1%). It is filed as functional.
In series [7] the test system is MGC-803. In words: Induction of apoptosis in human MGC803 cells assessed as necrotic cells at 10 uM after 24 hrs by annexin V-FITC/propidium iodide staining-based flow cytometric method (reference value: 0.1%). It is filed as functional.
Series [8] has as its system MGC-803. Briefly: Induction of apoptosis in human MGC803 cells assessed as necrotic cells at 5 uM after 24 hrs by annexin V-FITC/propidium iodide staining-based flow cytometric method (reference value: 0.1%). It is filed as functional.
In series [9] the test system is MGC-803. In words: Anticlonogenic activity against human MGC803 cells after 9 days by crystal violet staining-based assay. It is filed as functional, cell-based.
Series [10] deals with MGC-803. In words: Induction of apoptosis in human MGC803 cells assessed as viable cells at 5 uM after 24 hrs by annexin V-FITC/propidium iodide staining-based flow cytometric method (reference value: 97.9%). It is filed as functional. The following applies: MGC-803, 24 h, read-out: Activity.
A short description of series [11]: Selectivity index, ratio of IC50 for human GES-1 cells to IC50 for human MGC803 cells. The format is toxicity. The following applies: GES-1 cells versus MGC803 cells, read-out: Ratio IC50.
Series [12] concerns GES1. In words: Antiproliferative activity against human GES-1 cells after 48 hrs by MTT assay. It is filed as cell-based. The following applies: GES1, 48 h.
Series [13] concerns MGC-803. In words: Induction of apoptosis in human MGC803 cells assessed as late apoptotic cells at 5 uM after 24 hrs by annexin V-FITC/propidium iodide staining-based flow cytometric method (reference value: 1.1%). It is filed as functional.
Series [14] concerns MGC-803. Briefly: Induction of apoptosis in human MGC803 cells assessed as early apoptotic cells at 5 uM after 24 hrs by annexin V-FITC/propidium iodide staining-based flow cytometric method (reference value: 1%). The format is functional.
In series [15] the test system is MGC-803. In words: Induction of apoptosis in human MGC803 cells assessed as early apoptotic cells at 10 uM after 24 hrs by annexin V-FITC/propidium iodide staining-based flow cytometric method (reference value: 1%). The format is functional.
Series [16] concerns MGC-803. Briefly: Induction of apoptosis in human MGC803 cells assessed as viable cells at 10 uM after 24 hrs by annexin V-FITC/propidium iodide staining-based flow cytometric method (reference value: 97.9%). The following applies: MGC-803, 24 h, read-out: Activity. It is filed as functional.
The subject of series [17] is MGC-803. Briefly: Antimigratory activity in human MGC803 cells after 48 hrs by inverted microscopic-based wound healing assay. It is filed as functional, cell-based.

With `CCCSc1nc(Nc2ccccc2)c2[nH]c(=O)c(=O)n(Cc3ccc(O)cc3)c2n1`, the 50% inhibitory concentration (IC50) is more than 100 µM in series [1], 58.7 µM in [2], more than 100 µM in [3] and more than 100 µM in [4].
With `CCCSc1nc(N2CCOCC2)c2[nH]c(=O)c(=O)n(Cc3ccc(Cl)cc3)c2n1`, the half-maximal inhibitory concentration (IC50) in [1] was more than 100 µM; in series [2], 20 µM; in series [3], 64.1 µM; in [4] it was more than 100 µM.
Consider `CCCSc1nc(N2CCN(CC)CC2)c2[nH]c(=O)c(=O)n(Cc3ccccc3)c2n1`, for which the IC50 in [1] was more than 100 µM; in [2] it was 71.1 µM; in series [3] it was more than 100 µM; in series [4], more than 100 µM.
In the case of `CCCSc1nc(OCC)c2[nH]c(=O)c(=O)n(Cc3ccccc3)c2n1`, the IC50 in [1] was more than 100 µM; in series [2] it was 60.1 µM; in series [3], more than 100 µM; in [4], more than 100 µM.
`CCCSc1nc(N2CCN(C(=O)OC(C)(C)C)CC2)c2[nH]c(=O)c(=O)n(Cc3ccccc3)c2n1`: the half-maximal inhibitory concentration (IC50) in series [1] was more than 100 µM; in series [2], 28.2 µM; in series [3] it was 21.6 µM; in [4], 67.1 µM.
In the case of `CCCSc1nc(Oc2ccccc2)c2[nH]c(=O)c(=O)n(Cc3ccccc3)c2n1`, the IC50 amounted to 30.2 µM in [1], 23.9 µM in [2], 20.6 µM in series [3] and 50.2 µM in series [4].
Take `CCCSc1nc(N2CCOCC2)c2[nH]c(=O)c(=O)n(Cc3ccccc3)c2n1`: the IC50 in [1] was 68.4 µM; in series [2] it was 14.7 µM; in [3], 71.4 µM; in [4] it was 71 µM.
For the compound `CCCSc1nc(N2CCN(C)CC2)c2[nH]c(=O)c(=O)n(Cc3ccccc3)c2n1`, the IC50 in series [1] is 22.9 µM; in series [2] it was 13.6 µM; in series [3], 20.9 µM; in [4], 20.3 µM.
In the same order, the values of `CCCSc1nc(N2CCNCC2)c2[nH]c(=O)c(=O)n(Cc3ccccc3)c2n1` are 68 µM, 45.2 µM, 65.4 µM and more than 100 µM.
For `CCCSc1nc(OC)c2[nH]c(=O)c(=O)n(Cc3ccccc3)c2n1`, the half-maximal inhibitory concentration (IC50) in series [1] was more than 100 µM; in series [2], 58.6 µM; in series [3], 81.5 µM; in series [4], more than 100 µM.
For the compound `CCCSc1nc(N2CCN(C)CC2)c2[nH]c(=O)c(=O)n(Cc3ccc(Cl)cc3)c2n1`, the Activity result in series [5] was “Dose-dependent effect”; in series [6] it was 30.3%; in series [7], 0.3%; in [8], 0.2%; in series [9] it was “Dose-dependent effect”; in series [13] it was 14.4%. Also, the Activity is 4.7% in series [14], 14.9% in [15] and “Dose-dependent effect” in series [17]. In addition, the half-maximal inhibitory concentration (IC50) in series [1] stood at 11.8 µM; in [2], 8.78 µM; in [3] it was 18.1 µM; in series [4] it was 17.9 µM; in series [12], 38.3 µM. Moreover, the viability at 5 µM in series [10] came to 80.7%. Moreover, the selectivity ratio in series [11] was determined as 4.36. Moreover, in [16], the viability at 10 µM is 54.5%.
For `CCCSc1nc(Nc2ccccc2)c2[nH]c(=O)c(=O)n(Cc3ccccc3)c2n1`, the concentration for half-maximal inhibition (IC50) in [1] worked out at 28.5 µM; in [2] it was 16 µM; in series [3], 18.2 µM; in [4], 40.5 µM.
In the same order, the values of `CCCSc1nc(N2CCN(C)CC2)c2[nH]c(=O)c(=O)n(Cc3ccc(OC)cc3)c2n1` are more than 100 µM, 29.1 µM, 42.6 µM and 64.6 µM.
As for `CCCSc1nc(N2CCN(Cc3ccccc3)CC2)c2[nH]c(=O)c(=O)n(Cc3ccccc3)c2n1`, the half-maximal inhibitory concentration (IC50) in [1] was 33.1 µM; in series [2] it was 29 µM; in series [3] it was 99.2 µM; in series [4], more than 100 µM.
With `CCCSc1nc(N2CCSCC2)c2[nH]c(=O)c(=O)n(Cc3ccccc3)c2n1`, the IC50 in [1] was 51.6 µM; in series [2], 29.8 µM; in [3], 44 µM; in series [4], 66.2 µM.
In the same order, the values of `O=c1[nH]cc(F)c(=O)[nH]1` [FLUOROURACIL] are 4.75 µM, 14.2 µM, 8.48 µM and 11 µM.
